Data: PubChem BioAssay (NCI)
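Grown in 96-well plates, cells were treated for 48 hours with each compound at five concentrations. Insufficient inhibition: endpoint recorded as highest concentration tested. At the TGI there is no net growth.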

Experiments:
Assay in all cases: growth of human tumour cells (NCI), 48 h
[1] = system: KM12 colon
[2] = system: HCT-15 colon
[3] = system: A549 NSCLC
[4] = system: RXF 393 renal
[5] = system: HCC-2998 colon
[6] = system: SN12C renal
[7] = system: SR leukemia
[8] = system: T-47D breast
[9] = system: EKVX NSCLC
[10] = system: OVCAR-5 ovarian
[11] = system: OVCAR-8 ovarian
[12] = system: NCI/ADR-RES ovarian
[13] = system: COLO 205 colon
[14] = system: CAKI-1 renal
[15] = system: CCRF-CEM leukemia
[16] = system: SF-268 CNS
[17] = system: MDA-N
[18] = system: SK-MEL-2 melanoma
[19] = system: OVCAR-3 ovarian
[20] = system: UACC-62 melanoma

Structure (SMILES) | TGI [1] | TGI [2] | TGI [3] | TGI [4] | TGI [5] | TGI [6] | TGI [7] | TGI [8] | TGI [9] | TGI [10] | TGI [11] | TGI [12] | TGI [13] | TGI [14] | TGI [15] | TGI [16] | TGI [17] | TGI [18] | TGI [19] | TGI [20]
CCC(c1ccc(N(C)C)cc1)C1NC(=S)NC1=O (stereo unspecified) | > 100 µM | > 100 µM | > 100 µM | > 100 µM | > 100 µM | > 100 µM | > 100 µM | > 100 µM | > 100 µM | > 100 µM | > 100 µM | > 100 µM | > 100 µM | > 100 µM | > 100 µM | > 100 µM | > 100 µM |  |  | 
Clc1ccc(CCN2CCN(CCCc3ccccc3)CC2)cc1Cl | 32.1 µM | 27.8 µM | 29.9 µM |  | 31.3 µM | 29.8 µM | 78.8 µM | 35.1 µM | 32.9 µM | 29.9 µM | 30.4 µM | 28.5 µM | 31.6 µM | 33.8 µM | > 100 µM | 35.3 µM | 31.4 µM | 36.4 µM | 30.9 µM | 31.5 µM
c1ccc(C2(c3cc4ccccc4[nH]3)OCCO2)cc1 | > 100 µM | > 100 µM | > 100 µM | > 100 µM |  | > 100 µM | > 100 µM | > 100 µM | > 100 µM | > 100 µM | > 100 µM | > 100 µM | 65.2 µM | > 100 µM | 74 µM | > 100 µM | > 100 µM | > 100 µM | > 100 µM | > 100 µM
C[C@H]1C(=O)C2=C[C@H]1CCC(=O)[C@]1(C)CCCC(C)(C)[C@H]1C[C@H]2O | 52 µM | 34.3 µM | 43.6 µM | 23.6 µM |  | 94.2 µM | 61.3 µM | 32.9 µM | 31.9 µM | > 100 µM | 35 µM | 74.2 µM | 28.4 µM | > 100 µM | 75.4 µM | 64 µM | > 100 µM | > 100 µM | 84.9 µM | > 100 µM
COc1cc(C2c3cc4c(c(O)c3C(=O)C3CCC(=O)N32)OCO4)cc(OC)c1OC (stereo unspecified) | > 100 µM | > 100 µM | > 100 µM |  | > 100 µM | > 100 µM | > 100 µM | > 100 µM | > 100 µM | > 100 µM | > 100 µM | > 100 µM | > 100 µM | > 100 µM | > 100 µM | > 100 µM | 91.9 µM | > 100 µM | > 100 µM | > 100 µM
CCOc1c(OC)cc(CNNc2nccs2)cc1OC | > 100 µM | > 100 µM | > 100 µM | > 100 µM | > 100 µM | > 100 µM | > 100 µM | > 100 µM | > 100 µM | > 100 µM | > 100 µM | > 100 µM | > 100 µM | > 100 µM | > 100 µM | > 100 µM | > 100 µM |  | > 100 µM | 
C=CC(C)(C)c1cc([C@@H]2COc3cc(O)ccc3C2=O)c(O)c(OC)c1OC | 27.8 µM | 32.8 µM | 52 µM | 3.58 µM | 34.3 µM | 31.3 µM | > 100 µM | 35.2 µM | 58.3 µM | 50.4 µM | 54.3 µM | 43 µM | 45 µM |  | > 100 µM | 51 µM | 26 µM | 33.3 µM | 23.3 µM | 27.5 µM
COC[C@@H](N=Cc1ccc(OC)cc1)C(C)C | > 100 µM | > 100 µM | > 100 µM | > 100 µM |  | > 100 µM | > 100 µM | > 100 µM | > 100 µM | > 100 µM | > 100 µM | > 100 µM | > 100 µM | > 100 µM | > 100 µM | > 100 µM | > 100 µM | > 100 µM |  | > 100 µM
CC(C)(C)C(=O)C(C#N)C(=O)C(C)(C)C | > 100 µM | > 100 µM | > 100 µM | > 100 µM | > 100 µM | > 100 µM | 50 µM | > 100 µM | > 100 µM | > 100 µM | > 100 µM | > 100 µM | > 100 µM | > 100 µM | > 100 µM | > 100 µM | > 100 µM | > 100 µM | > 100 µM | 
COc1ccc(N=Nc2ccc3oc(=O)c(C(=O)Nc4ccc(OC)cc4)cc3c2)cc1 | 33.5 µM | 45.2 µM | > 100 µM | > 100 µM | 45.3 µM | 45.2 µM | 87.5 µM | 29.8 µM | 97.7 µM | 50.6 µM | 37.8 µM | 51.7 µM | 43.7 µM | > 100 µM | > 100 µM | 48.8 µM | > 100 µM | 39.5 µM | 46.6 µM | 
